The values below come from patent publication US8263598B2, “Substituted sulfonamide compounds” (Gruenenthal GmbH, priority 2008, dated 2012).

Experiment [1] deals with T1, human B1R receptor (hB1R) (Homo sapiens, UniProt P46663).
T1 construct: host or cells: CHO K1 cells
T1 sequence (P46663 1-353): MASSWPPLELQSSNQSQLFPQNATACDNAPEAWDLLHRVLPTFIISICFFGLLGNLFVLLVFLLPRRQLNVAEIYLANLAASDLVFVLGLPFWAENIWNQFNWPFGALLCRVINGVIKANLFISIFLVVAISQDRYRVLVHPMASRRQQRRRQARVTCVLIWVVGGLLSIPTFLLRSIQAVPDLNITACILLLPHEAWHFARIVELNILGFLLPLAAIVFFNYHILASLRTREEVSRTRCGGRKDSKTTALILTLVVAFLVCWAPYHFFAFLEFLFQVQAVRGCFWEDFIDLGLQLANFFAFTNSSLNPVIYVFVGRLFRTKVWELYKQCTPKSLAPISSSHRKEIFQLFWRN
Nature of the experiment: FLIPR Ca2+ assay on human bradykinin 1 receptor (CHO K1 hB1R cells). Format: cell-based. The note with it: test substance 10 μM; CHO K1 cells with human B1R gene; agonist Lys-Des-Arg9-bradykinin 0.5 nM; compared to maximum achievable inhibition. As to the method:
(§1) The agonistic or antagonistic action of compounds can be quantified on the bradykinin 1 receptor (B1R) of humans and rats with ectopically expressing cell lines (CHO K1 cells) and with the aid of a Ca^2+-sensitive dye (Fluo-4) in the fluorescent imaging plate reader (FLIPR). The figure in percent activation refers to the Ca^2+ signal after addition of Lys-Des-Arg^9-bradykinin (0.5 nM) and Des-Arg^9-bradykinin (100 nM). Antagonists result in a suppression of the Ca^2+ inflow after the addition of the agonist. Percent inhibition values are given in comparison to the maximum achievable inhibition.
(§2) The agonistic or antagonistic action of substances can be determined on the bradykinin 1 receptor (B1R) of humans and rats by means of the following assay.
(§3) According to this assay the Ca^2+ inflow through the channel is quantified by means of a Ca^2+-sensitive dye (Fluo-4 type, Molecular Probes Europe BV, Leiden, Netherlands), in a Fluorescent Imaging Plate Reader (FLIPR, Molecular Devices, Sunnyvale, USA). Method:
(§4) Chinese hamster ovary cells (CHO K1 cells) are used, which are stably transfected with the human B1R gene (hB1R cells, Euroscreen s.a., Gosselies, Belgium), or with the B1R gene of rats (rB1R cells, Axxam, Milan, Italy). For functional investigations these cells are plated out on black 96-well plates with a clear floor (BD Biosciences, Heidelberg, Germany) in a density of 20,000/25,000 cells/well. The cells are incubated overnight with 10 vol. % FBS (foetal bovine serum, Gibco Invitrogen GmbH, Karlsruhe, Germany) at 37° C. and 5% CO2 in a culture medium (hB1R cells: Nutrient Mixture Ham's F12, Gibco Invitrogen GmbH, Karlsruhe, Germany; rB1R cells: D-MEM/F12, Gibco Invitrogen GmbH, Karlsruhe, Germany). The following day the cells are charged for 60 minutes at 37° C. with 2.13 μM Fluo-4 (Molecular Probes Europe BV, Leiden, Netherlands) in HBSS buffer (Hank's buffered saline solution, Gibco Invitrogen GmbH, Karlsruhe, Germany) together with […] (Sigma-Aldrich, Taufkirchen, Germany) and 10 mM HEPES (Sigma-Aldrich, Taufkirchen, Germany).
(§5) The plates are then washed twice with HBSS buffer and HBSS buffer is added which additionally contains 0.1% BSA (bovine serum albumin; Sigma-Aldrich, Taufkirchen, Germany), 5.6 mM glucose and 0.05% gelatin (Merck KGaA, Darmstadt, Germany). After further incubation for 20 minutes at room temperature the plates are used for the Ca^2+ measurement in the FLIPR. The Ca^2+-dependent fluorescence is measured both before and after the addition of substances (λex=488 nm, λem=540 nm). The quantification is carried out by measuring the highest fluorescence intensity (FC, fluorescence counts) over time.
(§6) The FLIPR protocol consists of two substance additions. First of all test substances (10 μM) are pipetted onto the cells and the Ca^2+ inflow is compared with the control (hB1R: Lys-Des-Arg9-bradykinin 0.5 nM; rB1R: Des-Arg9-bradykinin 100 nM). This gives the result in percent activation referred to the Ca^2+ signal after addition of Lys-Des-Arg9-bradykinin (0.5 nM), bzw. Des-Arg9-bradykinin (100 nM). After 10 minutes' incubation 0.5 nM Lys-Des-Arg9-bradykinin (hB1R) and 100 nM Des-Arg^9-bradykinin (rB1R) are applied and the inflow of Ca^2+ is likewise determined. Antagonists lead to a suppression of the Ca^2+ inflow. The percent inhibition compared to the maximum achievable inhibition is calculated. The compounds show a good activity on both human and rat receptors.
(§7) The agonistic and antagonistic action of the compounds according to the invention on the bradykinin 1 receptor (B1R) of humans and rats were determined as described above. Antagonists lead to a suppression of the Ca^2+ inflow. The % inhibition compared to the maximum achievable inhibition was calculated.

In experiment [2] the target is T2, B1R receptor of rats (rB1R) (Rattus norvegicus, UniProt P97583).
T2 construct: host or cells: CHO K1 cells
T2 sequence (P97583 1-337): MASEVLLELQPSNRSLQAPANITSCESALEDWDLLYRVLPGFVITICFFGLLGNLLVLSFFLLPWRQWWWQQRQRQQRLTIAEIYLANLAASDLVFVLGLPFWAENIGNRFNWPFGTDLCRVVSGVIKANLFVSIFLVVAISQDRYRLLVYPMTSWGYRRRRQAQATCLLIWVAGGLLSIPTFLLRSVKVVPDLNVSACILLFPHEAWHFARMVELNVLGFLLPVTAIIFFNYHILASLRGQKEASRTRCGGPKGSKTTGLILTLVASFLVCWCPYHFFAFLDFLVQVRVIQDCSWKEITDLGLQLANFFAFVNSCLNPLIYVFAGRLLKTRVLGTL
Nature of the experiment: FLIPR Ca2+ assay on rat bradykinin 1 receptor (CHO K1 rB1R cells). Format: cell-based. As to conditions: test substance 10 μM; CHO K1 cells with B1R gene of rats; agonist Des-Arg9-bradykinin 100 nM; compared to maximum achievable inhibition. As for the experimental part:
as §1, §2, §3, §4, §5, §6, §7

SMILES strings stand for the structures.

The inhibition is the drop in the measured response relative to a control, in per cent. For `COc1cc(C)c(S(=O)(=O)N(C)CCOCC(=O)N2CCn3c(CN(C)C)ccc3C2c2ccccc2)c(C)c1` (stereo not shown) [Example 14, N-(2-(2-(6-((dimethylamino)methyl)-1-phenyl-3,4-dihydropyrrolo[1,2-a]pyrazin-2(1H)-yl)-2-oxoethoxy)ethyl)-4-methoxy-N,2,6-trimethylbenzenesulfonamide], the values for the inhibition at 10 µM in experiment [1] and in experiment [2] were 103% and 100%, respectively.

Turning to `COc1cc(C)c(S(=O)(=O)N(C)CCOCC(=O)N2CCn3c(CN4CCCC4)ccc3C2c2ccccc2)c(C)c1` (stereo not shown) [Example 15, 4-methoxy-N,2,6-trimethyl-N-(2-(2-oxo-2-(1-phenyl-6-(pyrrolidin-1-ylmethyl)-3,4-dihydropyrrolo[1,2-a]pyrazin-2(1H)-yl)ethoxy)ethyl)benzenesulfonamide], the inhibition at 10 µM in experiment [1] and in experiment [2] was 101% throughout.

As for `COc1cc(C)c(S(=O)(=O)N(C)CCOCC(=O)N2CCn3c(CN4CCCCC4)ccc3C2c2ccccc2)c(C)c1` (stereo not shown) [Example 16, 4-methoxy-N,2,6-trimethyl-N-(2-(2-oxo-2-(1-phenyl-6-(piperidin-1-ylmethyl)-3,4-dihydropyrrolo[1,2-a]pyrazin-2(1H)-yl)ethoxy)ethyl)benzenesulfonamide], the inhibition at 10 µM came out at 104% in experiment [1] and 102% in experiment [2].

For `COc1cc(C)c(S(=O)(=O)N(C)CCOCC(=O)N2CCn3c(CN(C)C)ccc3C2c2cccs2)c(C)c1` (stereo not shown) [Example 17, N-(2-(2-(6-((dimethylamino)methyl)-1-(thiophen-2-yl)-3,4-dihydropyrrolo[1,2-a]pyrazin-2(1H)-yl)-2-oxoethoxy)ethyl)-4-methoxy-N,2,6-trimethylbenzene-sulfonamide], the inhibition at 10 µM in experiment [1] and in experiment [2] was 102% throughout.

In the case of `COc1cc(C)c(S(=O)(=O)N(CCOCC(=O)N2CCn3cccc3C2C(C)(C)C)CC(C)C)c(C)c1C` (stereo not shown) [Example 18, N-(2-(2-(1-tert-butyl-3,4-dihydropyrrolo[1,2-a]pyrazin-2(1H)-yl)-2-oxoethoxy)ethyl)-N-isobutyl-4-methoxy-2,3,6-trimethylbenzenesulfonamide], the inhibition at 10 µM in experiment [1] stood at 82%; in experiment [2], 98%.

As to `COc1cc(C)c(S(=O)(=O)N(CCOCC(=O)N2CCn3cccc3C2c2cccnc2)CC(C)C)c(C)c1C` (stereo not shown) [Example 19, N-isobutyl-4-methoxy-2,3,6-trimethyl-N-(2-(2-oxo-2-(1-(pyridin-3-yl)-3,4-dihydropyrrolo[1,2-a]pyrazin-2(1H)-yl)ethoxy)ethyl)benzenesulfonamide], the results for the inhibition at 10 µM in experiment [1] and in experiment [2] were 101% and 98%, respectively.

Regarding `COc1cc(C)c(S(=O)(=O)N(CCOCC(=O)N2CCn3cccc3C2c2ccc(Cl)nc2)CC(C)C)c(C)c1C` (stereo not shown) [Example 20, N-(2-(2-(1-(6-chloropyridin-3-yl)-3,4-dihydropyrrolo[1,2-a]pyrazin-2(1H)-yl)-2-oxoethoxy)ethyl)-N-isobutyl-4-methoxy-2,3,6-trimethylbenzenesulfonamide], the inhibition at 10 µM came out at 84% in experiment [1] and 98% in experiment [2].

Turning to `COc1cc(C)c(S(=O)(=O)N(CCOCC(=O)N2CCn3ccnc3C2)CC(C)C)c(C)c1C` [Example 21, N-(2-(2-(5,6-dihydroimidazo[1,2-a]pyrazin-7(8H)-yl)-2-oxoethoxy)ethyl)-N-isobutyl-4-methoxy-2,3,6-trimethylbenzenesulfonamide], the inhibition at 10 µM in experiment [1] was 31%; in experiment [2], 100%.

As for `COc1ccc(C2c3cccn3CCN2C(=O)COCCN(CC(C)C)S(=O)(=O)c2c(C)cc(OC)c(C)c2C)cc1` (stereo not shown) [Example 22, N-isobutyl-4-methoxy-N-(2-(2-(1-(4-methoxyphenyl)-3,4-dihydropyrrolo[1,2-a]pyrazin-2(1H)-yl)-2-oxoethoxy)ethyl)-2,3,6-trimethylbenzenesulfonamide], the inhibition at 10 µM in experiment [1] stood at 53%; in experiment [2] it was 97%.

As to `COc1cc(C)c(S(=O)(=O)N(CCOCC(=O)N2CCn3cccc3C2c2ccccc2)CC(C)C)c(C)c1C` (stereo not shown) [Example 23, N-isobutyl-4-methoxy-2,3,6-trimethyl-N-(2-(2-oxo-2-(1-phenyl-3,4-dihydropyrrolo[1,2-a]pyrazin-2(1H)-yl)ethoxy)ethyl)benzenesulfonamide], the inhibition at 10 µM in experiment [1] amounted to 47%; in experiment [2], 97%.

Turning to `COc1cc(C)c(S(=O)(=O)N(CCOCC(=O)N2CCn3cccc3C2c2cccc(F)c2)CC(C)C)c(C)c1C` (stereo not shown) [Example 24, N-(2-(2-(1-(3-fluorophenyl)-3,4-dihydropyrrolo[1,2-a]pyrazin-2(1H)-yl)-2-oxoethoxy)ethyl)-N-isobutyl-4-methoxy-2,3,6-trimethylbenzenesulfonamide], the inhibition at 10 µM was determined as 32% in experiment [1] and 99% in experiment [2].

`COc1cc(C)c(S(=O)(=O)N(CCOCC(=O)N2CCn3cccc3C2c2cccs2)CC(C)C)c(C)c1C` (stereo not shown) [Example 25, N-isobutyl-4-methoxy-2,3,6-trimethyl-N-(2-(2-oxo-2-(1-(thiophen-2-yl)-3,4-dihydropyrrolo[1,2-a]pyrazin-2(1H)-yl)ethoxy)ethyl)benzenesulfonamide]: the values for the inhibition at 10 µM in experiment [1] and in experiment [2] were 55% and 98%, respectively.

`COc1cccc(C2c3cccn3CCN2C(=O)COCCN(CC(C)C)S(=O)(=O)c2c(C)cc(OC)c(C)c2C)c1` (stereo not shown) [Example 26, N-isobutyl-4-methoxy-N-(2-(2-(1-(3-methoxyphenyl)-3,4-dihydropyrrolo[1,2-a]pyrazin-2(1H)-yl)-2-oxoethoxy)ethyl)-2,3,6-trimethylbenzenesulfonamide]: the inhibition at 10 µM in experiment [1] stood at 34%; in experiment [2], 99%.

`COc1c(C)cc(S(=O)(=O)N(C)CCOCC(=O)N2CCn3cccc3C2C(C)(C)C)c(C)c1C` (stereo not shown) [Example 27, N-(2-(2-(1-tert-butyl-3,4-dihydropyrrolo[1,2-a]pyrazin-2(1H)-yl)-2-oxoethoxy)ethyl)-4-methoxy-N,2,3,5-tetramethylbenzenesulfonamide]: the figures for the inhibition at 10 µM in experiment [1] and in experiment [2] were 95% and 98%, respectively.
